Measured values reported in PMC9490236, “Accurate de novo design of membrane-traversing macrocycles” (Cell, 2022).
Values joined by “and” are separate entries in the source; they are usually repeats but may differ in a detail not shown here. Equal entries are not always repeated. Where two headings read alike, the source gives them in different places. Where a SMILES comes first, the peptide text is derived from it. [ ]: non-standard residue; d: D form. dNMeL = CN[C@H](CC(C)C)C(=O)O

Legend:
[1] = Parallel artificial membrane permeability assay (PAMPA); details: average of replicates R1-R3; BQL = no significant peak detected for the peptide in the acceptor wells
[2] = PAMPA
[3] = Caco-2 permeability assay (apical to basolateral); format: in vitro ADME, human; details: Caco-2, Caco_Papp_Average
Method in brief: (§1)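 Caco-2 monolayers were grown on 0.4 μm Transwell inserts for 6 days. Peptides were applied apically at 50 μM with HBSS basolaterally and incubated 90 min at 37°C with shaking.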

Caco-2 cells = test: Caco-2 permeability assay (apical to basolateral); format: in vitro ADME, human; details: Caco-2
Method in brief: as §1

[4] = Pharmacokinetics and oral bioavailability of D8.3.p1 and D10.1 in Balb/C female mice (PO, SQ, IV); format: in vivo
Procedure: In vivo bioavailability assays were conducted in mice and rats. D8.3.p1 and D10.1 were studied in female Balb/C mice by van Voorhis group at University of Washington. D11.2 was evaluated in Sprague Dawley (SD) rats by Robert Griffin’s group at Takeda Pharmaceuticals. D11.3 was studied in the male swiss albino mice by the contract research organization, GVK Biosciences Pvt. Ltd., Hyderabad, India. All animals used in these studies were handled in strict accordance with practices made to minimize suffering. All animal experiments conducted at the University of Washington, USA, and Takeda Pharmaceuticals, USA were approved by the Institutional Animal Care and Use Committee. Animal studies at GVK Biosciences were reviewed and approved by the Institutional Animal Ethics Committee of GVK Biosciences. We selected four designed macrocycles with diverse structures and in vitro rates of permeability for in vivo oral bioavailability studies in the rodent models. Due to the intensive resource requirements for such studies, these studies were conducted by three different research groups. D8.3.p1 and D10.1 were studied in female Balb/C mice by van Voorhis group at University of Washington. D11.2 was evaluated in Sprague Dawley (SD) rats by Robert Griffin’s group at Takeda Pharmaceuticals. D11.3 was studied in the male swiss albino mice by the contract research organization, GVK Biosciences Pvt. Ltd., Hyderabad, India. […] Blood samples were collected at multiple time points and plasma was separated from whole blood using centrifugation and stored at -80°C. […] Samples were mixed, centrifuged, and supernatant harvested for LC-MS analysis. For RP-HPLC analysis, peptides were evaluated using Agilent ZORBAX Eclipse Plus C18 1.8 μm, 2.1 mm x 50 mm and Waters Xevo TQ-S micro Triple Quadrupole/ACQUITY UPLC H-Class. […] Pharmacokinetic parameters were modeled using the Phoenix WinNonlin software package. […]

[5] = D8.3.p1 IV 1 mg/kg, individual mice M1, M2, M3, 1 mg/kg
[6] = D8.3.p1 PO 5 mg/kg, individual mice M1, M2, M3, 5 mg/kg
[7] = D8.3.p1 SQ 5 mg/kg, individual mice M1, M2, M3
[8] = female, Balb/C, mouse, in vivo, iv, 1 mg/kg, Plasma level
[9] = female, Balb/C, mouse, in vivo, sc, 5 mg/kg, Plasma level

Structure (SMILES): CC[C@@H](C)[C@H]1NC(=O)[C@@H](CC(C)C)NC(=O)[C@@H](CC(C)C)N(C)C(=O)[C@@H]2CCCN2C(=O)[C@@H](C(C)C)NC(=O)[C@H](CC(C)C)NC(=O)[C@@H](CC(C)C)N(C)C(=O)[C@@H]2CCCN2C1=O [Design D8.3.p1, DLEU DVAL PRO *DLEU DLEU DILE PRO *DLEU] (cyclo(L[dV]P[dNMeL][dL][dI]P[dNMeL]))
- PAMPA_Papp_Avg [1]: 4.61E-06
- PAMPA_R1 [2]: 5.23E-06
- PAMPA_R3 [2]: 3.90E-06
- Papp A→B [3]: 11.8 ×10⁻⁶ cm/s
- Caco_R1 (Caco-2 cells): 13.1
- Caco_R3 (Caco-2 cells): 8.9
- CLP [4, 5]: 37.62 mL/min/kg and 49.17 mL/min/kg and 38.55 mL/min/kg
- MRT [4, 5]: 15.45 min and 13.12 min and 15.23 min
- T1/2 [4, 5]: 14.5 min and 10.5 min and 11.24 min
- VSS [4, 5]: 0.79 L/kg and 0.75 L/kg and 0.62 L/kg
- VZ [4, 5]: 0.89 L/kg and 0.87 L/kg and 0.59 L/kg
- C0 ([4]; D8.3.p1 IV 1 mg/kg, individual mice M1, M2, M3, 1 mg/kg, read-out: C0): 1610 nM and 1470 nM
- Half-life T1/2 ([4]; D8.3.p1 IV 1 mg/kg, mean n=3): 12.08 min
- Mean residence time MRT ([4]; D8.3.p1 IV 1 mg/kg, mean n=3): 14.60 min
- Plasma clearance CLP ([4]; D8.3.p1 IV 1 mg/kg, mean n=3): 41.78 mL/min/kg
- Volume of distribution @ steady state VSS ([4]; D8.3.p1 IV 1 mg/kg, mean n=3): 0.72 ± 0.09 L/kg
- Volume of distribution during elimination phase VZ ([4]; D8.3.p1 IV 1 mg/kg, mean n=3): 0.78 ± 0.17 L/kg
- C0 ([4]; D8.3.p1 IV 1 mg/kg, mean n=3, read-out: Initial concentration C0): 1530 ± 70 nM
- Oral bioavailability F ([4]; D8.3.p1 PO 5 mg/kg vs IV 1 mg/kg, mean): 10.74%
- Cl/F [4, 6]: 0.0112 L/min and 0.00671 L/min and 0.00706 L/min
- T1/2 [4, 6]: 23.33 min and 18.86 min and 45.25 min
- Tmax [4, 6]: 15 min and 30 min
- Cmax ([4]; D8.3.p1 PO 5 mg/kg, individual mice M1, M2, M3, 5 mg/kg, read-out: Cmax): 220 nM and 190 nM
- Apparent clearance Cl/F ([4]; D8.3.p1 PO 5 mg/kg, mean n=3): 0.00834 L/min
- Half-life T1/2 ([4]; D8.3.p1 PO 5 mg/kg, mean n=3): 29.15 min
- Time of max concentration Tmax ([4]; D8.3.p1 PO 5 mg/kg, mean n=3): 25 ± 0.01 min
- Cmax ([4]; D8.3.p1 PO 5 mg/kg, mean n=3, read-out: Max concentration Cmax): 210 ± 20 nM
- Cl/F [4, 7]: 0.000617 L/min and 0.000577 L/min and 0.000312 L/min
- T1/2 [4, 7]: 111.2 min and 101.86 min and 250.78 min
- Tmax [4, 7]: 60 min and 30 min
- Cmax ([4]; D8.3.p1 SQ 5 mg/kg, individual mice M1, M2, M3, read-out: Cmax): 840 nM and 1080 nM and 930 nM
- Half-life T1/2 ([4]; D8.3.p1 SQ 5 mg/kg, mean n=3): 154.61 min
- Time of max concentration Tmax ([4]; D8.3.p1 SQ 5 mg/kg, mean n=3): 50 ± 17.32 min
- Cmax ([4]; D8.3.p1 SQ 5 mg/kg, mean n=3, read-out: Max concentration Cmax): 950 ± 120 nM
- Plasma level ([4]; female, Balb/C, mouse, in vivo, iv, 1 mg/kg, 5 min): 990 nM
- Plasma level ([4]; female, Balb/C, mouse, in vivo, iv, 1 mg/kg, 0.25 h): 630 nM
- level at time molar at 5 min [4, 8]: 1110 nM
- level at time molar at 0.25 h [4, 8]: 420 nM
- level at time molar at 0.5 h [4, 8]: 190 nM
- Plasma level ([4]; female, Balb/C, mouse, in vivo, sc, 5 mg/kg, 0.25 h): 700 nM
- Plasma level ([4]; female, Balb/C, mouse, in vivo, sc, 5 mg/kg, 0.5 h): 710 nM
- Plasma level ([4]; female, Balb/C, mouse, in vivo, sc, 5 mg/kg, 2 h): 880 nM
- Plasma level ([4]; female, Balb/C, mouse, in vivo, sc, 5 mg/kg, 6 h): 230 nM
- level at time molar at 0.25 h [4, 9]: 510 nM
- level at time molar at 0.5 h [4, 9]: 540 nM
- level at time molar at 1 h [4, 9]: 840 nM
- level at time molar at 2 h [4, 9]: 720 nM
- level at time molar at 6 h [4, 9]: 150 nM
- level at time molar at 24 h [4, 9]: 20 nM
- level at time molar at 0.5 h ([4]; female, Balb/C, mouse, in vivo, sc, D8.3.p1 SQ 5 mg/kg, 30 min, individual mice M1, M2, M3, read-out: Plasma level): 1080 nM
- AUC(0-inf) ([4]; female, Balb/C, mouse, in vivo, D8.3.p1 PO 5 mg/kg, mean n=3): 0.238 µM·h
- AUC(0-t) ([4]; female, Balb/C, mouse, in vivo, D8.3.p1 PO 5 mg/kg, mean n=3, read-out: AUC0-t (converted)): 0.182 µM·h
- CL/F ([4]; female, Balb/C, mouse, plasma, sc, D8.3.p1 SQ 5 mg/kg, mean n=3, read-out: Apparent clearance Cl/F): 0.502 mL/min
- Tmax ([4]; mouse, in vivo, 5 mg/kg, Tmax): 60 min
- Plasma level ([4]; mouse, in vivo, iv, 1 mg/kg, 5 min): 1070 ± 70 nM
- Plasma level ([4]; mouse, in vivo, iv, 1 mg/kg, 0.5 h): 270 ± 90 nM
- Plasma level ([4]; mouse, in vivo, iv, 1 mg/kg, 1 h): 60 ± 40 nM
- C0 ([4]; mouse, in vivo, iv, 1 mg/kg, C0): 1520 nM
- Plasma level ([4]; mouse, in vivo, po, 5 mg/kg, 1 h): 120 ± 40 nM
- Plasma level ([4]; mouse, in vivo, po, 5 mg/kg, 2 h): 10 nM
- Cmax ([4]; mouse, in vivo, po, 5 mg/kg, Cmax): 230 nM
- Tmax ([4]; mouse, in vivo, po, 5 mg/kg, Tmax): 30 min
- Plasma level ([4]; mouse, in vivo, sc, 5 mg/kg, 0.25 h): 610 ± 130 nM
- Plasma level ([4]; mouse, in vivo, sc, 5 mg/kg, 0.5 h): 780 ± 280 nM
- Plasma level ([4]; mouse, in vivo, sc, 5 mg/kg, 1 h): 900 ± 50 nM
- Plasma level ([4]; mouse, in vivo, sc, 5 mg/kg, 2 h): 780 ± 90 nM
- Plasma level ([4]; mouse, in vivo, sc, 5 mg/kg, 4 h): 340 ± 170 nM
- Plasma level ([4]; mouse, in vivo, sc, 5 mg/kg, 6 h): 130 ± 120 nM
- Plasma level ([4]; mouse, in vivo, sc, 5 mg/kg, 24 h): 10 ± 0 nM
